Among the data in patent US20070248672A1, “Indole and Azaindole Derivatives with Antitumor Action” (priority 2004, published 2007) are IC50 values, retold here.

In test [1] the target is Vacuolar ATPase in human osteoclastoma (hOc) (Homo sapiens, UniProt P27449+Q13488). Description: Vacuolar ATPase inhibition in human osteoclastoma (hOc) microsomal fraction. In kind it is biochemical. The note with it: 30 min, 37° C. The method, then:
1.1 Determination of Vacuolar ATpase Inhibition in Human Osteoclastoma (hOc)
Osteoclast-like giant cells isolated from human osteoclastoma are homogenized using a glass-teflon homogeniser (1000 rpm) and the material is centrifuged for 20 minutes at 6000 g. The resultant pellet is resuspended and centrifuged at 100000 g for 60 minutes to sediment the microsomal fraction. The resultant pellet is resuspended in medium at pH 7.4 and stored under liquid nitrogen.
Inhibition of bafilomycin sensitive ATPase activity is assayed by measuring the release of inorganic phosphate during 30 minutes of incubation, at 37° C., of the human osteoclastoma microsomal fraction in 96-well plates. The reaction medium contains 1 mM ATP, 10 mM Hepes-Tris buffer pH 8, 50 mM KCl, 5 μM valinomycin, 5 μM nigericin, 1 mM CDTA-Tris, 100 μM ammonium molybdate, 0.2 M sucrose and the microsomal fraction (20 μg protein/ml). The reaction is initiated by adding MgSO4 and terminated, after 30 minutes, by adding 4 volumes of the reagent malachite green, prepared according to Chan K., Anal. Biochem. 157, 375-380, 1986.

Test [2] relates to HT29 cells. Description: Antiproliferative activity, 72 h treatment, SRB assay, HT29. The class given is cell-based, human. The note with it: HT-29, 72 h treatment; read-out: Antiproliferative activity (IC50 ± S.D.) HT-29 72 h treatment. The method, then: (§1) HT29 and HT29/Mit (line obtained by prolonged exposure to mitoxantrone, and characterised by overexpression of BCRP, which confers cross resistance to topotecan, irinotecan and to its metabolite SN38): maintained in McCoy 5A medium+10% FCS.
(§2) 2.2 Scheme of the Antiproliferative Activity Experiment (Treatment Time: 72 Hours)
(§3) The cells (HT29 and HT29/Mit: 40,000 cells/ml, LoVo, LoVo/Dx and HCT116: 50,000 cells/ml) are seeded in 100 μl of the respective culture media in 96-well plates. 24 hours after seeding, an aliquot (10 μl) of drug at the various concentrations is added. In the samples in which the effect of the combination of two compounds is to be tested the inhibitor is added immediately before the cytotoxic. For each dose or combination of doses/drugs the effect of the treatment is determined in 4-8 replicates.
(§4) After 72 hours of treatment the antiproliferative effect is evaluated using the sulforhodamine B (SRB) assay: the cells are fixed by adding 25 μl of 50% TCA to each well and left for 1 hour at 4° C. After washing them with water and allowing them to dry, 100 μl of 0.4% SRB in 1% acetic acid are added and left for 30 minutes at room temperature. After 4 washes in 1% acetic acid, they are left to dry then the dye fixed by the proteins is dissolved under basic conditions with 100 μl 10 mM cold Tris and the solution is read using a spectrophotometer at 550 nm.
(§5) Percentage cell growth is calculated as the optical density of treated samples compared to the optical density of controls (untreated cells).
Background: The SRB assay estimates cell density from bound dye.

Test [3] has as its system HT29/Mit cells. Description: Antiproliferative activity, 72 h treatment, SRB assay, HT29/Mit resistant line. In kind it is cell-based, human. The note with it: HT-29/Mit resistant line, 72 h treatment; read-out: Antiproliferative activity (IC50 ± S.D.) HT-29/Mit. The method, then: as §1, §2, §3, §4, §5
Test [4] relates to HepG2 cells. As to the kind of experiment: Antiproliferative activity, 48 h treatment, ATPlite luminescence assay, HepG2. The class given is cell-based, human. To be noted: HepG2, 48 h treatment; read-out: Antiproliferative activity (IC50 ± S.D.) HepG2 48 h treatment. The method, then: HepG2: maintained in EMEM medium+10% FCS.
2.3 Scheme of the Antiproliferative Activity Experiment (Treatment Time: 48 Hours)
The cells (concentration: 30,000 cells/ml) are seeded in 90 μl of the respective culture media in 96-well plates. 24 hours after seeding, an aliquot (10 μl) of the drug at the various concentrations is added (for each concentration there are 3 replicates). After 48 hours of treatment the antiproliferative effect is evaluated with a luminescence assay (Perkin Elmer Life Sciences ATPlite):
50 μl of a lysis solution are added to each well followed by an equal volume of a solution containing luciferase and D-luciferin. The ATP present in all the metabolically active cells brings about the transformation reaction of D-luciferin, catalysed by luciferase, to produce a luminescent signal as described in the following scheme: ATP+D-luciferin+O2→Oxyluciferin+AMP+PP1+CO2+Light
The luminescence produced (expressed in counts per second, CPS) is measured by means of a microplate scintillation analyzer (Perkin Elmer Life Sciences Top Count).
Percentage inhibition of luminescence in the treated cells compared to the control is calculated; concentration-response curves are then analysed using Grafit v.5.0.
(Cellular ATP, detected with luciferase, serves as a proxy for viable cell number.)

Chain of Vacuolar ATPase in human osteoclastoma (hOc) (P27449 whole entry, looked up): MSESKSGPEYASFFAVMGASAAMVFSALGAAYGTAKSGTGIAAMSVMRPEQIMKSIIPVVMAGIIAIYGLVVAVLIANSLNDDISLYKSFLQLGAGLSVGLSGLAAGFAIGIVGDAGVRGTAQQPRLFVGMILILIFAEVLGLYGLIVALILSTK
Chain of Vacuolar ATPase in human osteoclastoma (hOc) (Q13488 whole entry, looked up): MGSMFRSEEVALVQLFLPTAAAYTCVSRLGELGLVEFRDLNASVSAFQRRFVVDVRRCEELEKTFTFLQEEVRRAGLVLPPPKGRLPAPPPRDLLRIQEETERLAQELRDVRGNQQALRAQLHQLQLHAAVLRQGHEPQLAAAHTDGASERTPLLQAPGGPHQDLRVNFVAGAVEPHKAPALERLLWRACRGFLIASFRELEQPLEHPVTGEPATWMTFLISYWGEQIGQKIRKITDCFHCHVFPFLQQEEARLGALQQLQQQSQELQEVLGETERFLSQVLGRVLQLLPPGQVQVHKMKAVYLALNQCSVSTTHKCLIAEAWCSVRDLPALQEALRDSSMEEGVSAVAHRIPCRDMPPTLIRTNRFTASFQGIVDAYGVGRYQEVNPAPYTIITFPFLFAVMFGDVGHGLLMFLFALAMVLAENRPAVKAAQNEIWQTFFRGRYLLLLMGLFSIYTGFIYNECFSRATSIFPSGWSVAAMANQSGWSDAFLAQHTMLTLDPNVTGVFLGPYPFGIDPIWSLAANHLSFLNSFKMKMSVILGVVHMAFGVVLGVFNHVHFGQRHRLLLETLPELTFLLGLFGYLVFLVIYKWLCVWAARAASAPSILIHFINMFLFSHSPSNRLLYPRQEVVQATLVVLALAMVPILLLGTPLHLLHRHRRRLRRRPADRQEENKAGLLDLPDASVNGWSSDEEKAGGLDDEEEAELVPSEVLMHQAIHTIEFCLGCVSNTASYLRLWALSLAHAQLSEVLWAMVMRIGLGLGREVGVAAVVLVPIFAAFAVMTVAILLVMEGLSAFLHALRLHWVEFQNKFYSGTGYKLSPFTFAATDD

Take `CO/C1=C\C(C)=C\[C@@H](C)[C@@H](O)[C@@H](C)C/C(C)=C/C=C/[C@H](OC)[C@@H]([C@@H](C)[C@@H](O)[C@H](C)[C@@]2(O)C[C@@H](O)[C@H](C)[C@@H](C(C)C)O2)OC1=O` [Bafilomycin A1, reference compound]: the IC50 in test [1] is 0.1 nM; in test [2], 3 ± 2 nM; in test [3], 5 nM; in test [4] it was below 6 nM.
